# Data published in patent publication US9744203B2, “Application of composition in preparing health care product or medicine for preventing and treating leukopenia caused by radiotherapy and chemotherapy” (JIANGZHONG PHARMACEUTICAL CO., LTD., priority 2012, dated 2017).
# Values joined by “and” are separate entries in the source; they are usually repeats but may differ in a detail not shown here. Equal values may be shown once.
# Experiments:
# Type in all cases: in vivo
# [1] = system: leucocyte reduction in mice induced by cyclophosphamide; experiment: Peripheral leucocyte assay, leucocyte reduction in mice induced by cyclophosphamide; details: cyclophosphamide model; positive control batyl alcohol 100 mg/kg intragastric, 15 days
# Description: (§1) Mice were randomly divided into 6 groups with 10 animals per group, i.e., normal control group, model control group, positive control group, and groups on low, medium and high doses of Composition 1. The low-, medium- and high-dose groups were intragastrically given Composition 1 at a dose of 2.0 g crude drug/kg, 4.0 g crude drug/kg, and 12.0 g crude drug/kg, respectively; the positive control group was intragastrically given batyl alcohol (100 mg/kg) at a dose of 0.1 ml/10 g body weight; the normal control group and the model control group were intragastrically given an equivalent volume of distilled water; and the dosage regime lasted for 15 days with one dose per day. From day 9 of intragastrical administration, all mice in each group, except the normal control group, were given cyclophosphamide at a dose of 40 mg/kg each day via subcutaneous injection for 3 consecutive days. One hour after the intragastrical administration on day 15, blood and femurs were harvested for tests.
# 40 μL blood was drawn from the tail vein of the mice and transferred into a EDTA-K2 anticoagulative tube, into which 160 μL dilution liquid was added, and then assayed in an automatic blood cell analyzer.
# Mice were randomly divided into 6 groups with 10 animals per group, i.e., normal control group, model control group, positive control group, and groups on low, medium and high doses of Composition 2. […]
# [2] = system: leucocyte reduction in mice induced by cyclophosphamide; experiment: Bone marrow DNA content determination, mice injected with cyclophosphamide; details: cyclophosphamide model; absorbance at 268 nm, day 15; positive control batyl alcohol 100 mg/kg intragastric
# Description: as §1
# A 7 mm section was dissected from the middle of the right femur. The whole bone marrow was flushed into a centrifuge tube with a 10 mL solution of 0.005 mol/L CaCl2, placed in a refrigerator at 4° C. for 30 min, and then centrifuged at 2500 r/min for 15 min. […] The supernatant was removed and its absorbance at 268 nm was measured.
# [3] = system: leucocyte reduction in mice induced by cytarabine; experiment: Bone marrow nucleated cell count, mice injected with cytarabine; details: cytarabine model; one femur, day 15; positive control batyl alcohol 100 mg/kg intragastric
# Description: [Worded in the source for another target; used here, by the source, with some conditions changed.] as §1
# Mice were sacrificed by cervical dislocation. The left femur was removed and flushed with a 10 ml solution of 3% acetic acid to obtain the cells in the bone marrow. The number of cells in 4 large grids on a hemacytometer was counted, and the number was multiplied by 2.5×10^4 to obtain the BMC in one femur. […]
# [4] = system: leucocyte reduction in mice induced by X-ray radiation; experiment: Peripheral leucocyte assay, leucocyte reduction in mice induced by X-ray radiation; details: X-ray radiation model; positive control batyl alcohol 100 mg/kg intragastric
# Description: [Worded in the source for another target; used here, by the source, with some conditions changed.] as §1
# (§2) 40 μL blood was drawn from the tail vein of the mice and transferred into a EDTA-K2 anticoagulative tube, into which 160 μL dilution liquid was added, and then assayed in an automatic blood cell analyzer. […]
# [5] = system: leucocyte reduction in mice induced by cytarabine; experiment: Peripheral leucocyte assay, leucocyte reduction in mice induced by cytarabine; details: cytarabine model; positive control batyl alcohol 100 mg/kg intragastric, 15 days
# Description: [Worded in the source for another target; used here, by the source, with some conditions changed.] as §1, §2
# [6] = system: leucocyte reduction in mice induced by cyclophosphamide; experiment: Bone marrow nucleated cell count, mice injected with cyclophosphamide; details: cyclophosphamide model; one femur, day 15; positive control batyl alcohol 100 mg/kg intragastric
# Description: as §1
# Mice were sacrificed by cervical dislocation. The left femur was removed and flushed with a 10 ml solution of 3% acetic acid to obtain the cells in the bone marrow. The number of cells in 4 large grids on a hemacytometer was counted, and the number was multiplied by 2.5×10^4 to obtain the BMC in one femur.
# [7] = system: leucocyte reduction in mice induced by X-ray radiation; experiment: Bone marrow nucleated cell count, mice after X-ray radiation; details: X-ray radiation model; one femur; positive control batyl alcohol 100 mg/kg intragastric
smiles,measurement,setting,value
"CCCCCCCCCCCCCCCCCCOCC(O)CO (stereo not shown) [Positive control, batyl alcohol]",WBC after modeling,[1],3.55 ± 1.21 ×10^9 and 4.64 ± 1.30 ×10^9 and 5.25 ± 1.30 ×10^9 and 6.13 ± 1.47 ×10^9 and 5.73 ± 1.60 ×10^9 and 6.25 ± 1.76 ×10^9
same,WBC after treatment,[1],6.20 ± 1.82 ×10^9 and 7.34 ± 1.59 ×10^9 and 7.56 ± 1.80 ×10^9 and 8.23 ± 1.54 ×10^9 and 7.89 ± 1.60 ×10^9 and 8.96 ± 1.93 ×10^9
same,Bone marrow DNA,[2],0.610 ± 0.138 and 0.629 ± 0.150 and 0.625 ± 0.162 and 0.730 ± 0.150 and 0.755 ± 0.128 and 0.958 ± 0.138
same,Bone marrow BCM,[3],12.53 ± 2.24 ×10^6 and 13.95 ± 2.77 ×10^6 and 13.64 ± 2.19 ×10^6 and 14.32 ± 2.65 ×10^6 and 13.25 ± 2.31 ×10^6 and 13.58 ± 2.17 ×10^6
same,WBC on day 8 after treatment,[4],3.66 ± 1.05 ×10^9 and 5.60 ± 1.28 ×10^9 and 5.87 ± 1.62 ×10^9 and 5.80 ± 1.44 ×10^9 and 5.32 ± 1.54 ×10^9 and 5.53 ± 1.28 ×10^9
same,WBC on day 15 after treatment,[4],6.92 ± 1.98 ×10^9 and 7.04 ± 1.87 ×10^9 and 7.49 ± 1.52 ×10^9 and 7.88 ± 1.61 ×10^9 and 7.80 ± 1.43 ×10^9 and 8.03 ± 1.59 ×10^9
same,WBC after modeling,[5],3.80 ± 1.03 ×10^9 and 4.67 ± 1.27 ×10^9 and 4.90 ± 1.43 ×10^9 and 4.16 ± 1.09 ×10^9 and 4.53 ± 1.28 ×10^9 and 6.62 ± 1.52 ×10^9
same,WBC after treatment,[5],6.54 ± 1.93 ×10^9 and 6.85 ± 1.70 ×10^9 and 7.10 ± 1.88 ×10^9 and 7.26 ± 1.90 ×10^9 and 7.54 ± 1.62 ×10^9 and 8.52 ± 1.55 ×10^9
same,Bone marrow BCM,[6],13.44 ± 2.36 ×10^6 and 11.87 ± 2.08 ×10^6 and 13.65 ± 2.42 ×10^6 and 14.73 ± 2.04 ×10^6 and 14.86 ± 2.28 ×10^6 and 15.72 ± 2.34 ×10^6
same,Bone marrow BCM,[7],13.20 ± 2.02 ×10^6 and 12.43 ± 2.29 ×10^6 and 13.69 ± 2.65 ×10^6 and 14.57 ± 2.57 ×10^6 and 13.92 ± 2.57 ×10^6 and 14.78 ± 2.44 ×10^6
